Experimental data from publication PMC9516332 (Frontiers in Oncology, 2022).
Read-outs that look alike come from different tables or passages of the source.

What was measured:
134 cancer cell lines = test: Cell viability assay (ATPlite, 72 hours), IC50 on cancer cell line panel
AP-1060 (ETV6-NTRK3) = test: Cell viability assay; conditions: read-out: IC50 in cell proliferation assay

O=C(c1ccc(F)c(F)c1Nc1ccc(I)cc1F)N1CC(O)([C@@H]2CCCCN2)C1 [cobimetinib]
IC50 (134 cancer cell lines; Homo sapiens, MV4-11, read-out: IC50 in cell proliferation assay, MV4-11 cell line (FLT3 ITD)): 0.111 µM
IC50 (134 cancer cell lines; Homo sapiens, MeWo, read-out: IC50 in cell proliferation assay, MeWo cell line): 0.33 µM
IC50 (134 cancer cell lines; Homo sapiens, NCCIT, read-out: IC50 in cell proliferation assay, NCC-IT cell line): 1.29 µM
IC50 (134 cancer cell lines; Homo sapiens, NCI-H82, read-out: IC50 in cell proliferation assay, cell line NCI-H82): 8.22 µM
IC50 (134 cancer cell lines; Homo sapiens, NCI-H460, read-out: IC50 in cell proliferation assay, NCI-H460 cell line): 0.077 µM
IC50 (134 cancer cell lines; Homo sapiens, NCI-H661, read-out: IC50 in cell proliferation assay, NCI-H661 cell line): > 10 µM
IC50 (134 cancer cell lines; Homo sapiens, NCI-H716, read-out: IC50 in cell proliferation assay, cell line NCI-H716 (FGFR2-COL14A1)): 0.921 µM
IC50 (134 cancer cell lines; Homo sapiens, NCI-H1650, read-out: IC50 in cell proliferation assay, NCI-H1650 cell line (EGFR exon19del)): 0.527 µM
IC50 (134 cancer cell lines; Homo sapiens, NCI-H1975, read-out: IC50 in cell proliferation assay, NCI-H1975 cell line (EGFR p.L858R + p.T790M)): 0.098 µM
IC50 (134 cancer cell lines; Homo sapiens, NCI-H2228, read-out: IC50 in cell proliferation assay, NCI-H2228 cell line (EML4-ALK)): 0.721 µM
IC50 (134 cancer cell lines; Homo sapiens, OVCAR-3, read-out: IC50 in cell proliferation assay, cell line OVCAR-3): > 10 µM
IC50 (134 cancer cell lines; Homo sapiens, PFSK-1, read-out: IC50 in cell proliferation assay, cell line PFSK-1): > 10 µM
IC50 (134 cancer cell lines; Homo sapiens, RL95-2, read-out: IC50 in cell proliferation assay, cell line RL95-2 (EGFR p.A289V)): 0.034 µM
IC50 (134 cancer cell lines; Homo sapiens, RPMI-7951, read-out: IC50 in cell proliferation assay, cell line RPMI-7951 (BRAF p.V600E)): 0.02 µM
IC50 (134 cancer cell lines; Homo sapiens, RS4-11, read-out: IC50 in cell proliferation assay, cell line RS4;11): > 10 µM
IC50 (134 cancer cell lines; Homo sapiens, Rec1, read-out: IC50 in cell proliferation assay, cell line REC-1): 6.39 µM
IC50 (134 cancer cell lines; Homo sapiens, SHP77, read-out: IC50 in cell proliferation assay, cell line SHP-77): > 10 µM
IC50 (134 cancer cell lines; Homo sapiens, SK-BR-3, read-out: IC50 in cell proliferation assay, cell line SK-BR-3 (ERBB2 amplification)): > 10 µM
IC50 (134 cancer cell lines; Homo sapiens, SK-N-AS, read-out: IC50 in cell proliferation assay, cell line SK-N-AS): 0.012 µM
IC50 (134 cancer cell lines; Homo sapiens, SK-N-FI, read-out: IC50 in cell proliferation assay, cell line SK-N-FI): 0.082 µM
IC50 (134 cancer cell lines; Homo sapiens, SK-N-MC, read-out: IC50 in cell proliferation assay, cell line SK-N-MC): 7.63 µM
IC50 (134 cancer cell lines; Homo sapiens, SK-N-SH, read-out: IC50 in cell proliferation assay, cell line SK-N-SH (ALK p.F1174L)): 0.037 µM
IC50 (134 cancer cell lines; Homo sapiens, SNU-5, read-out: IC50 in cell proliferation assay, cell line SNU-5 (MET amplification)): 0.047 µM
IC50 (134 cancer cell lines; Homo sapiens, SNU-16, read-out: IC50 in cell proliferation assay, cell line SNU-16 (FGFR2 amplification)): 2.49 µM
IC50 (134 cancer cell lines; Homo sapiens, SNU-C2B, read-out: IC50 in cell proliferation assay, cell line SNU-C2B (EGFR p.R165Q)): 0.324 µM
IC50 (134 cancer cell lines; Homo sapiens, SU-DHL-1, read-out: IC50 in cell proliferation assay, cell line SU-DHL-1 (NPM1-ALK)): 0.478 µM
IC50 (134 cancer cell lines; Homo sapiens, SU-DHL-6, read-out: IC50 in cell proliferation assay, cell line SU-DHL-6): 2.02 µM
IC50 (134 cancer cell lines; Homo sapiens, SUP-T1, read-out: IC50 in cell proliferation assay, cell line SUP-T1): > 10 µM
IC50 (134 cancer cell lines; Homo sapiens, SW48, read-out: IC50 in cell proliferation assay, cell line SW48 (EGFR p.G719S)): 0.059 µM
IC50 (134 cancer cell lines; Homo sapiens, SW480, read-out: IC50 in cell proliferation assay, cell line SW480): 0.342 µM
IC50 (134 cancer cell lines; Homo sapiens, SW626, read-out: IC50 in cell proliferation assay, cell line SW626): 0.146 µM
IC50 (134 cancer cell lines; Homo sapiens, SW780, read-out: IC50 in cell proliferation assay, cell line SW780 (FGFR3-BAIAP2L1)): 0.127 µM
IC50 (134 cancer cell lines; Homo sapiens, SW837, read-out: IC50 in cell proliferation assay, cell line SW837): 0.137 µM
IC50 (134 cancer cell lines; Homo sapiens, SW872, read-out: IC50 in cell proliferation assay, cell line SW872 (BRAF p.V600E)): 0.046 µM
IC50 (134 cancer cell lines; Homo sapiens, SW900, read-out: IC50 in cell proliferation assay, cell line SW900): 0.295 µM
IC50 (134 cancer cell lines; Homo sapiens, SW948, read-out: IC50 in cell proliferation assay, cell line SW948): 0.087 µM
IC50 (134 cancer cell lines; Homo sapiens, SW982, read-out: IC50 in cell proliferation assay, cell line SW982 (BRAF p.V600E)): 1.7 µM
IC50 (134 cancer cell lines; Homo sapiens, SW-620, read-out: IC50 in cell proliferation assay, cell line SW620): 0.093 µM
IC50 (134 cancer cell lines; Homo sapiens, T98G, read-out: IC50 in cell proliferation assay, cell line T98G): 3.34 µM
IC50 (134 cancer cell lines; Homo sapiens, TCC-SUP, read-out: IC50 in cell proliferation assay, cell line TCCSUP): 0.483 µM
IC50 (134 cancer cell lines; Homo sapiens, THP-1, read-out: IC50 in cell proliferation assay, cell line THP-1): 0.02 µM
IC50 (134 cancer cell lines; Homo sapiens, U2OS, read-out: IC50 in cell proliferation assay, cell line U2OS): 0.279 µM
IC50 (134 cancer cell lines; Homo sapiens, U-87 MG, read-out: IC50 in cell proliferation assay, cell line U-87MG ATCC): 0.925 µM
IC50 (134 cancer cell lines; Homo sapiens, U-118-MG, read-out: IC50 in cell proliferation assay, cell line U-118MG): 0.147 µM
IC50 (134 cancer cell lines; Homo sapiens, UMUC3, read-out: IC50 in cell proliferation assay, cell line UM-UC-3): 0.043 µM
IC50 (134 cancer cell lines; Hs766T, read-out: IC50 in cell proliferation assay, Hs 766T cell line): 0.006 µM
IC50 (134 cancer cell lines; L-82, read-out: IC50 in cell proliferation assay, L-82 cell line (NPM1-ALK)): 0.25 µM
IC50 (134 cancer cell lines; Rh30, read-out: IC50 in cell proliferation assay, cell line Rh30): 3.41 µM
IC50 (134 cancer cell lines; read-out: IC50 in cell proliferation assay, 11-18 cell line (EGFR p.L858R)): > 10 µM
IC50 (134 cancer cell lines; read-out: IC50 in cell proliferation assay, Hs 852.T cell line): 0.592 µM
IC50 (134 cancer cell lines; read-out: IC50 in cell proliferation assay, JAR cell line): 6.29 µM
IC50 (134 cancer cell lines; read-out: IC50 in cell proliferation assay, cell line 5637): 0.452 µM
IC50 (134 cancer cell lines; read-out: IC50 in cell proliferation assay, cell line A-388): 0.171 µM
IC50 (134 cancer cell lines; read-out: IC50 in cell proliferation assay, cell line DB): 8.69 µM
IC50 (134 cancer cell lines; read-out: IC50 in cell proliferation assay, cell line DEL (NPM1-ALK)): 4.2 µM
IC50 (134 cancer cell lines; read-out: IC50 in cell proliferation assay, cell line ES-2 (BRAF p.V600E)): 0.032 µM
IC50 (134 cancer cell lines; read-out: IC50 in cell proliferation assay, cell line PA-1): 0.496 µM
IC50 (134 cancer cell lines; read-out: IC50 in cell proliferation assay, cell line PC-3): > 10 µM
IC50 (134 cancer cell lines; read-out: IC50 in cell proliferation assay, cell line RD): 0.092 µM
IC50 (134 cancer cell lines; read-out: IC50 in cell proliferation assay, cell line RKO (BRAF p.V600E)): 0.038 µM
IC50 (134 cancer cell lines; read-out: IC50 in cell proliferation assay, cell line RL): > 10 µM
IC50 (134 cancer cell lines; read-out: IC50 in cell proliferation assay, cell line RT-4 (FGFR3-TACC3)): 0.299 µM
IC50 (134 cancer cell lines; read-out: IC50 in cell proliferation assay, cell line SR (NPM1-ALK)): 0.509 µM
IC50 (134 cancer cell lines; read-out: IC50 in cell proliferation assay, cell line T24): 0.043 µM
IC50 (134 cancer cell lines; read-out: IC50 in cell proliferation assay, cell line TT (RET p.C634W)): 0.225 µM
IC50 (134 cancer cell lines; read-out: IC50 in cell proliferation assay, cell line VA-ES-BJ): 4.58 µM
IC50 (AP-1060 (ETV6-NTRK3)): 7.33 µM
